Results taken from ChEMBL document CHEMBL4507319 (2021).

Tests used:
[1] = tested on: Phosphatidylinositol 4,5-bisphosphate 3-kinase catalytic subunit alpha isoform (Homo sapiens), P42336 [M1043I]; conditions: Compound concentration 1000.0 nM
[2] = molecular target: RAC-gamma serine/threonine-protein kinase (Homo sapiens) (UniProt Q9Y243); conditions: Compound concentration 1000.0 nM
[3] = molecular target: T1, Mitogen-activated protein kinase kinase kinase 2 (Homo sapiens) (UniProt Q9Y2U5); conditions: Compound concentration 1000.0 nM
T1 sequence (whole entry): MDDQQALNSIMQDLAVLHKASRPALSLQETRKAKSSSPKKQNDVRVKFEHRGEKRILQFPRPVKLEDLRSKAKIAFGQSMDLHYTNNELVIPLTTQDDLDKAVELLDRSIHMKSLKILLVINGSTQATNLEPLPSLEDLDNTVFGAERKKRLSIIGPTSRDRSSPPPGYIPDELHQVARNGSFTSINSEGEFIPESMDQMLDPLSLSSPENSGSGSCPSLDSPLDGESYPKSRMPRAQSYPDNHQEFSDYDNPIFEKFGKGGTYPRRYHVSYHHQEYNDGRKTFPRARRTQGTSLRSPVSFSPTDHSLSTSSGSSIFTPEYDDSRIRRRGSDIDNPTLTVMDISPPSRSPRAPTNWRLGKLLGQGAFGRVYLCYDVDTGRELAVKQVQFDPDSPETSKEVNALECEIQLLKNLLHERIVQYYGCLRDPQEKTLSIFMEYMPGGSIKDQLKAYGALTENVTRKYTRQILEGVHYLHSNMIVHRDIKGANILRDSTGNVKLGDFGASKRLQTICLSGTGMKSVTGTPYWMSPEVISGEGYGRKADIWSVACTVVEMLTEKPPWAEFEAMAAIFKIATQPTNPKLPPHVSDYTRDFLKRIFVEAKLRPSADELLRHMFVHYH

[4] = molecular target: Serine/threonine-protein kinase mTOR (Homo sapiens) (UniProt P42345); conditions: Compound concentration 1000.0 nM
[5] = molecular target: Calcium/calmodulin-dependent protein kinase type 1 (Homo sapiens) (UniProt Q14012); conditions: Compound concentration 1000.0 nM
Chain of Calcium/calmodulin-dependent protein kinase type 1 (Homo sapiens) (Q14012 whole entry, looked up): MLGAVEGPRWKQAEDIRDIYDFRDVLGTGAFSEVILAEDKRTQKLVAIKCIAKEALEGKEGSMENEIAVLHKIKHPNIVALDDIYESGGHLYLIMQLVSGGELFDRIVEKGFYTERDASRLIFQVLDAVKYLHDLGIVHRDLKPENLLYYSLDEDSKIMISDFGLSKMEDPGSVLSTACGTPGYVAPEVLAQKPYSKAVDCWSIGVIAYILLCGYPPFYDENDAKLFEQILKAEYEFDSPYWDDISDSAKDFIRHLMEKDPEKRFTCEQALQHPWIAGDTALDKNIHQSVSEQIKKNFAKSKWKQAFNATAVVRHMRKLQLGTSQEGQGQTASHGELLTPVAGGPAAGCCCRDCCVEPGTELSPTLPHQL

[6] = molecular target: T2, Serine/threonine-protein kinase D2 (Homo sapiens) (UniProt Q9BZL6); conditions: Compound concentration 1000.0 nM
T2 sequence (whole entry): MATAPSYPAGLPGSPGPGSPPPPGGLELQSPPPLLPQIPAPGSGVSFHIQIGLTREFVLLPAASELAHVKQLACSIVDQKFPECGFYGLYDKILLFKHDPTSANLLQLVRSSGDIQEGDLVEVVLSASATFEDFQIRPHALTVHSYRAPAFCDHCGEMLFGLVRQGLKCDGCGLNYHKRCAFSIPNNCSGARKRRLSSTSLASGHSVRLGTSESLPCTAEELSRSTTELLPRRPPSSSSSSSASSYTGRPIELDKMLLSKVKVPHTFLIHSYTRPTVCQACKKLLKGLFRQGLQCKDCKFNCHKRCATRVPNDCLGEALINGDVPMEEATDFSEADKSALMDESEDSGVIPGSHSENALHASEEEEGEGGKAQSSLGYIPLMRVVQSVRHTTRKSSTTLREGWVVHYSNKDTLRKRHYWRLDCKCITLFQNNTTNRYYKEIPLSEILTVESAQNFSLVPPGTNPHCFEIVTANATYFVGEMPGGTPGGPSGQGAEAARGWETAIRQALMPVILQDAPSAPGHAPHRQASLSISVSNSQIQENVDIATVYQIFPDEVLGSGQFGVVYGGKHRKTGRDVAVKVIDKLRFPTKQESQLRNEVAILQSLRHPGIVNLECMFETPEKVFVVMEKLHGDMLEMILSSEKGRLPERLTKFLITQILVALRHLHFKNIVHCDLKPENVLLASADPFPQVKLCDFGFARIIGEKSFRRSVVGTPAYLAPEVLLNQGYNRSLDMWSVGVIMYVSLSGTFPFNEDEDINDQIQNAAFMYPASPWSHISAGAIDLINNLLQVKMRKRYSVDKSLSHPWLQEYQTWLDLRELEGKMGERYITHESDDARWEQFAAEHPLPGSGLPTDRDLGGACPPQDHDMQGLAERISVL

[7] = molecular target: T3, Ephrin type-A receptor 8 (Homo sapiens) (UniProt P29322); conditions: Compound concentration 1000.0 nM
T3 sequence (whole entry): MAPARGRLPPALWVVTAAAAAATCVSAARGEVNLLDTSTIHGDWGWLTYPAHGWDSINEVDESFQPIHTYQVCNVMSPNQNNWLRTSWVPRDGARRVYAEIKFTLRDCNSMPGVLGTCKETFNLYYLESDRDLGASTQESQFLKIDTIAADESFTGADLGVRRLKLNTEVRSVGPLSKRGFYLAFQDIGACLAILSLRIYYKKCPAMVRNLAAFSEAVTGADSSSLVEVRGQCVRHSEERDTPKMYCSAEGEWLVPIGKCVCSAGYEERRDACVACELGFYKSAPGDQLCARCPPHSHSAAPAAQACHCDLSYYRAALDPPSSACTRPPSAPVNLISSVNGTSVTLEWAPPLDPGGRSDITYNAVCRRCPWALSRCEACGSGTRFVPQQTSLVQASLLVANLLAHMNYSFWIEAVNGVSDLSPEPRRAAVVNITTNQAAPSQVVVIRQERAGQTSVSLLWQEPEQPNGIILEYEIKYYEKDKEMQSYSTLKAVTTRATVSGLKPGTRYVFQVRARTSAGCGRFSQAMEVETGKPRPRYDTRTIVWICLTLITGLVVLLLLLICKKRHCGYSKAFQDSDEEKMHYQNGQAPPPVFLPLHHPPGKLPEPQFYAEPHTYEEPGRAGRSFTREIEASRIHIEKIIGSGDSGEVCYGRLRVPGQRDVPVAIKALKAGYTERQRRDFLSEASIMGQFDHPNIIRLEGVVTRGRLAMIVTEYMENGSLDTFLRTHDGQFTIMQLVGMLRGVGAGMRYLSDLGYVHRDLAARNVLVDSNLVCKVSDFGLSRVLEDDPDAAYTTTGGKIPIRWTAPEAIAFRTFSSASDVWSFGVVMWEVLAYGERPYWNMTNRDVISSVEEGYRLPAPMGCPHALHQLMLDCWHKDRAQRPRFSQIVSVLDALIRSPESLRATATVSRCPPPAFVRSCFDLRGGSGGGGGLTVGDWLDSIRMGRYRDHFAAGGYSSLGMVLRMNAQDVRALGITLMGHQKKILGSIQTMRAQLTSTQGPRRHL

[8] = molecular target: Muscarinic acetylcholine receptor M1 (Homo sapiens) (UniProt P11229); conditions: Compound concentration 10.0 uM
Chain of Muscarinic acetylcholine receptor M1 (Homo sapiens) (P11229 whole entry): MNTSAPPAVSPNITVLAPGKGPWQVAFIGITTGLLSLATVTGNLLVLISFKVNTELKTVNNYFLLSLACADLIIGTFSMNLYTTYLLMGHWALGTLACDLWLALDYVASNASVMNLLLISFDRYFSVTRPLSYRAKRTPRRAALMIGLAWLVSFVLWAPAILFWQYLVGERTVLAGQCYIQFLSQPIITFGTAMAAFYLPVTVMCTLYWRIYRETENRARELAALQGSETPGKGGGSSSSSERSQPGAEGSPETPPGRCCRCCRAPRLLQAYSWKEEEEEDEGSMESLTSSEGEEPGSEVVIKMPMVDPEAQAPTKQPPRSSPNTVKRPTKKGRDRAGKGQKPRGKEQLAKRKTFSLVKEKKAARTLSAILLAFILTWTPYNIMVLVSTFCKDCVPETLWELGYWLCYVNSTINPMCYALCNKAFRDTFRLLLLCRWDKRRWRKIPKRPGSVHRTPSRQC

Chain of Phosphatidylinositol 4,5-bisphosphate 3-kinase catalytic subunit alpha isoform (Homo sapiens), P42336 [M1043I] (P42336 whole entry M1043I, canonical isoform): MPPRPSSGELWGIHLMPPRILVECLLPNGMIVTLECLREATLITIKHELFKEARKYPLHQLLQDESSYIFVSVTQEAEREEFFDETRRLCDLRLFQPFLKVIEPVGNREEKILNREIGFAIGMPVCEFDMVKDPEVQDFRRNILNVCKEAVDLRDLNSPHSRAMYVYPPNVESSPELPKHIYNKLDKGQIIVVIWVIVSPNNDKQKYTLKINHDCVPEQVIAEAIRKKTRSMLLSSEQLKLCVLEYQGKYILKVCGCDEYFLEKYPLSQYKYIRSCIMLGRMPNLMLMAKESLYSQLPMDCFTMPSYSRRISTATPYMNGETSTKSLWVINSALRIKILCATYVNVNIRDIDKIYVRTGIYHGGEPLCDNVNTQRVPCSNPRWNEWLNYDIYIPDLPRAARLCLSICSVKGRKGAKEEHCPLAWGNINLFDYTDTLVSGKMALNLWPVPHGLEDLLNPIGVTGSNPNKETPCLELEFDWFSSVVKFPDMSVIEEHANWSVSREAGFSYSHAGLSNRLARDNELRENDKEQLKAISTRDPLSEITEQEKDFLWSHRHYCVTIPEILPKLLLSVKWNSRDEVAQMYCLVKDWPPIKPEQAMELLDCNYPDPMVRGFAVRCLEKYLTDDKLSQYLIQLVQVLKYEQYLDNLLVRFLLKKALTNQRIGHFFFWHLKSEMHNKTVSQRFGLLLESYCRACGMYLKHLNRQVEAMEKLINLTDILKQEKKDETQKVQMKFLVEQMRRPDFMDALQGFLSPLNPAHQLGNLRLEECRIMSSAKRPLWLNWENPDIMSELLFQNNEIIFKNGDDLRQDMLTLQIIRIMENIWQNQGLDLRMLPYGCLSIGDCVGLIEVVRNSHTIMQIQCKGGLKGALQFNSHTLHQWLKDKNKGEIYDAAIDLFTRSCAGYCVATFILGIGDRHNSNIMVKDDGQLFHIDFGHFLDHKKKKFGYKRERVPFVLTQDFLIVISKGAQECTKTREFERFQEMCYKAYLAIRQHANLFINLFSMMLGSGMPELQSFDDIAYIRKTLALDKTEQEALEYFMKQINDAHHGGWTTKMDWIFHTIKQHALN
Chain of RAC-gamma serine/threonine-protein kinase (Homo sapiens) (Q9Y243 whole entry): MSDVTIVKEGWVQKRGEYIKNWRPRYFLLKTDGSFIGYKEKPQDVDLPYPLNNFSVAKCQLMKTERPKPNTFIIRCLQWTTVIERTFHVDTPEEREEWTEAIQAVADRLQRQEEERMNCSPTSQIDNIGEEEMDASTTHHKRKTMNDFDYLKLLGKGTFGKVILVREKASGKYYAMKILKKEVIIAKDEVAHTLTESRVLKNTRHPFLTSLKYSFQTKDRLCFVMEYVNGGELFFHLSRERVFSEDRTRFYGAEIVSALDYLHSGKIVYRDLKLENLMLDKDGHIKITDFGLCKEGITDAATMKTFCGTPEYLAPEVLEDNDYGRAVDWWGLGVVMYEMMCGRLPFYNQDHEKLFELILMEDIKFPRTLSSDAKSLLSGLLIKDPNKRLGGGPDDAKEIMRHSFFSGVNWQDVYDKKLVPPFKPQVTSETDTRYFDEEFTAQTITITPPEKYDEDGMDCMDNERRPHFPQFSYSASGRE

CC1=C(C#N)C(c2ccc3c(c2)c(NC(=O)c2ccccc2C)nn3C)C(C#N)=C(C)N1 [BAY-974]
inactive: residual activity [1] 100% | residual activity [2] 93% | residual activity [3] 100% | residual activity [4] 75% | residual activity [5] 98% | residual activity [6] 95% | residual activity [7] 100% | inhibition [8] -1.37%

CCc1ccccc1C(=O)Nc1n[nH]c2c(C)c(F)c(C3C(C#N)=C(C)N(C)C(C)=C3C#N)cc12 [BAY-3827]
inactive: residual activity [1] 75% | residual activity [2] 100% | residual activity [3] 100% | residual activity [4] 100% | residual activity [5] 76% | residual activity [6] 87% | residual activity [7] 79% | inhibition [8] 2.81%
